Data published in ChEMBL document CHEMBL1909046, “DrugMatrix in vitro pharmacology data”.

How the values were obtained:
[1] = biological target: C-C chemokine receptor type 2 (Homo sapiens, UniProt P41597); format: cell membranes, CHO-K1, Membrane; conditions: cho-k1; also: in other assays of this panel Not Active means under 50% inhibition at 10 µM
[2] = biological target: T1, 3-hydroxy-3-methylglutaryl-coenzyme A reductase (Homo sapiens, UniProt P04035); set-up: species or system Escherichia coli;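 also: enzyme inhibition assay of HMG-CoA reductase using radiolabeled [14C]HMG-CoA as substrate; in other assays of this panel Not Active means under 50% inhibition at 10 µM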
T1 sequence (P04035 whole entry): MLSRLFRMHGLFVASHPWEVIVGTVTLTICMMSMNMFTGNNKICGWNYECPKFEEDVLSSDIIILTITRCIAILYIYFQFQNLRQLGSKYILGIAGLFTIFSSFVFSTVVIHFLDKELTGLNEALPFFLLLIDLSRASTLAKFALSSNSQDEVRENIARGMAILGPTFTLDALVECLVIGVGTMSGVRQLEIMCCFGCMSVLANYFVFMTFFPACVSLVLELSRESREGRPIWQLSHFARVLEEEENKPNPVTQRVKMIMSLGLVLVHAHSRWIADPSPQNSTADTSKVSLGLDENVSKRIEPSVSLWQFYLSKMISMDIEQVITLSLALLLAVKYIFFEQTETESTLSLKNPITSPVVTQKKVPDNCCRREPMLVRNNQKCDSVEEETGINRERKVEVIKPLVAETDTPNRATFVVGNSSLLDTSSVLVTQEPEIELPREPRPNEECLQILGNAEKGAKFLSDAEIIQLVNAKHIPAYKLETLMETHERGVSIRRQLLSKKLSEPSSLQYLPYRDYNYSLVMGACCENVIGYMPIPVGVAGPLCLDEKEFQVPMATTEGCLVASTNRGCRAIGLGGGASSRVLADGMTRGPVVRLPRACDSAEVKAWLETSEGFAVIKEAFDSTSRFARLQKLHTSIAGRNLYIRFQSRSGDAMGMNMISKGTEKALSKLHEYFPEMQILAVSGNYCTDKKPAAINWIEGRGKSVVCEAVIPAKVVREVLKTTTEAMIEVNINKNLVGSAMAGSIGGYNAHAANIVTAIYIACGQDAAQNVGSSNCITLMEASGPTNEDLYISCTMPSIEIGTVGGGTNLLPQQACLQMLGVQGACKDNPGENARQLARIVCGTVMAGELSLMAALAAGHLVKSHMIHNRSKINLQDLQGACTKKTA

[3] = DRUGMATRIX: Interleukin IL-1 radioligand binding (ligand: [125I] interleukin 1beta); format: cell membranes, Membrane; conditions: nih3t3; Not Active = under 50% inhibition at 10 µM
[4] = DRUGMATRIX: Nicotinic Acetylcholine radioligand binding (ligand: [125I] Epibatidine); format: cell membranes, Membrane; conditions: imr-32; Not Active = under 50% inhibition at 10 µM
[5] = biological target: T2, Angiotensin-converting enzyme (Oryctolagus cuniculus, UniProt P12822); test: biochemical; format: tissue-based, Lung;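 also: enzymatic inhibition of angiotensin-converting enzyme measured with FAPGG as the substrate; in other assays of this panel Not Active means under 50% inhibition at 10 µM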
T2 sequence (P12822 whole entry): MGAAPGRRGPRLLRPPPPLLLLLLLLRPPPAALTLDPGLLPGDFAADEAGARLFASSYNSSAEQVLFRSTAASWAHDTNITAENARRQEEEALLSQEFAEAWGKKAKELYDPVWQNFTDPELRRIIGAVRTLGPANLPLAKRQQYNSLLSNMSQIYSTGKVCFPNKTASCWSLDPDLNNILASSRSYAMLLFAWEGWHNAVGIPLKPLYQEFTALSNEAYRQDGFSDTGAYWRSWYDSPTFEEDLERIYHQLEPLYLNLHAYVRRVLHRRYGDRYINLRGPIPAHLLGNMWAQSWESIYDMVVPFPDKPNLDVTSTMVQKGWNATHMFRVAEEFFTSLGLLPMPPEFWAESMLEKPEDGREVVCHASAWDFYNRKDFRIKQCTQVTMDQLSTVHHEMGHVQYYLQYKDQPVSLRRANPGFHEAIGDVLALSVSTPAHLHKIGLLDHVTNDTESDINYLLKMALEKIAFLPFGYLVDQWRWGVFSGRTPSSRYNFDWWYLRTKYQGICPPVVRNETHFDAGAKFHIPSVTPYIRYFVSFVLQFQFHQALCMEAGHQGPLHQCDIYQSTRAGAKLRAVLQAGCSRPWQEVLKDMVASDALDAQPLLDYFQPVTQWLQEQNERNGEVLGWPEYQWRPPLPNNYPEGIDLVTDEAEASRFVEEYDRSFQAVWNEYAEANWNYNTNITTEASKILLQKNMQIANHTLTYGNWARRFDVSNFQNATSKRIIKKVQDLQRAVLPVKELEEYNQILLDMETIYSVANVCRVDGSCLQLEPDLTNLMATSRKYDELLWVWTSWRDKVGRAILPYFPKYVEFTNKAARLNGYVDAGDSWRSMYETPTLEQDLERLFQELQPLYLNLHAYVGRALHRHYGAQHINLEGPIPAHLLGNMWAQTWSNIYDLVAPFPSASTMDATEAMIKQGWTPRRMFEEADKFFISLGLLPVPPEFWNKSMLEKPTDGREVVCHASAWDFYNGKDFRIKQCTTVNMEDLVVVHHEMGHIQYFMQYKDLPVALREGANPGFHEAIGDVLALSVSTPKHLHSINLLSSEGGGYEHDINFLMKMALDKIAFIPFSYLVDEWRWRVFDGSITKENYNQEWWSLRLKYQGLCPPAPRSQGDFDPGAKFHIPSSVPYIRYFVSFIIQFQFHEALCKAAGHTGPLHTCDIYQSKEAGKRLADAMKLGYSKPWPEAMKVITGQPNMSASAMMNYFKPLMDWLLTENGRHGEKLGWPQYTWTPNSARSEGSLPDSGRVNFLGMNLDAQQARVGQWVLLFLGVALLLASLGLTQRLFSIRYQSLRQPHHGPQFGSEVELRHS

Cytochrome P450 2E1 = Cytochrome P450 2E1 (Homo sapiens, UniProt P05181); conditions: bti-tn-5b1-4; also: in other assays of this panel Not Active means under 50% inhibition at 10 µM
Sequence of Cytochrome P450 2E1 (P05181 whole entry): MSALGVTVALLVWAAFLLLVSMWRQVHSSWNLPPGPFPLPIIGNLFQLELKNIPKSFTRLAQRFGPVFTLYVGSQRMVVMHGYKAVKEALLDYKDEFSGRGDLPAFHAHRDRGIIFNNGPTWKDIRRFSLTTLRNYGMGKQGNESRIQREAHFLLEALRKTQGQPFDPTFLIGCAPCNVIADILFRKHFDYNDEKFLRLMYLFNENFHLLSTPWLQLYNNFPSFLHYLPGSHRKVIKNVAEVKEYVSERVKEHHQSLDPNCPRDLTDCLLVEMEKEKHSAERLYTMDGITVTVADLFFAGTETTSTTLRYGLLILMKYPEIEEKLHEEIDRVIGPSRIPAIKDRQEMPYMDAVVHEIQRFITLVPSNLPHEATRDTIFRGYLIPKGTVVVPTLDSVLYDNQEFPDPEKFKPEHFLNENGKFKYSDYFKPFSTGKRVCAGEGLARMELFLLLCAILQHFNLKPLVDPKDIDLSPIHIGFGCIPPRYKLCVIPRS

Estrogen receptor beta = Estrogen receptor beta (Homo sapiens, UniProt Q92731); conditions: sf9; also: in other assays of this panel Not Active means under 50% inhibition at 10 µM
Sequence of Estrogen receptor beta (Q92731 whole entry): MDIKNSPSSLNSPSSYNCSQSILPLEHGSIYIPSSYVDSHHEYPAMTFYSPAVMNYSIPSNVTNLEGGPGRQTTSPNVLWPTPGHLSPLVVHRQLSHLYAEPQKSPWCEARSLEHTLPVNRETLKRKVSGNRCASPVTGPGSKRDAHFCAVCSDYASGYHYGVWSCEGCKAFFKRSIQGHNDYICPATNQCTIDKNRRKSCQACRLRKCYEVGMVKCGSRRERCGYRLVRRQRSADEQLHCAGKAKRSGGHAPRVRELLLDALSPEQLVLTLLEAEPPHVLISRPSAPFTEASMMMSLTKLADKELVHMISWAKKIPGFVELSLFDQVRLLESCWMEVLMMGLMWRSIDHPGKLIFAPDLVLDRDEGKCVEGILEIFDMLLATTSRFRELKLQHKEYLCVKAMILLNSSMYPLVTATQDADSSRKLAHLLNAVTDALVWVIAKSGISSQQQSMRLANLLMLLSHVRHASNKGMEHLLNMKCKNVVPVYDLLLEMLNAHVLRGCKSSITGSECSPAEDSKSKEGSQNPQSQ

Sequence of C-C chemokine receptor type 2 (P41597 whole entry): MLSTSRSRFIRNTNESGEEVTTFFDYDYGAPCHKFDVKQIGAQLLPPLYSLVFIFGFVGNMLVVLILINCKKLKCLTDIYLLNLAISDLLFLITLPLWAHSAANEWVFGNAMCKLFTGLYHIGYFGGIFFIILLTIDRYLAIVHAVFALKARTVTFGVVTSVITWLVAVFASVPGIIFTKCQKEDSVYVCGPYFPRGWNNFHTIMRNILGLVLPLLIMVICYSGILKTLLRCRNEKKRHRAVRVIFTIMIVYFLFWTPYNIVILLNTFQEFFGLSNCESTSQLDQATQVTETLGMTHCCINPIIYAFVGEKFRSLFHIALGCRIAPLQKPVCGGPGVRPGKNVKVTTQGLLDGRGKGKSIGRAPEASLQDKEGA

CC(C)(C#N)c1cc(Cn2cncn2)cc(C(C)(C)C#N)c1 [ANASTROZOLE]
Not Active: IC50 [1] | IC50 [2] | IC50 [3] | Ki [3] | IC50 [4] | Ki [4] | IC50 [5] | IC50 (Cytochrome P450 2E1) | Ki (Cytochrome P450 2E1) | IC50 (Estrogen receptor beta)

CC12CCC(CC1=O)C2(C)C (centres undefined) [CAMPHOR]
Not Active: IC50 [1] | IC50 [2] | IC50 [3] | Ki [3] | IC50 [4] | Ki [4] | IC50 [5] | IC50 (Cytochrome P450 2E1) | Ki (Cytochrome P450 2E1) | IC50 (Estrogen receptor beta)

Cc1ccnc2c1NC(=O)c1cccnc1N2C1CC1 [NEVIRAPINE]
Not Active: IC50 [1] | IC50 [2] | IC50 [3] | Ki [3] | IC50 [4] | Ki [4] | IC50 [5] | IC50 (Cytochrome P450 2E1) | Ki (Cytochrome P450 2E1) | IC50 (Estrogen receptor beta)

Clc1cc(Cl)c(OCC#CI)cc1Cl [HALOPROGIN]
Not Active: IC50 [1] | IC50 [2] | IC50 [3] | Ki [3] | IC50 [4] | Ki [4] | IC50 [5] | IC50 (Cytochrome P450 2E1) | Ki (Cytochrome P450 2E1) | IC50 (Estrogen receptor beta)

CCCCCCNC(=O)n1cc(F)c(=O)[nH]c1=O [CARMOFUR]
Not Active: IC50 [1] | IC50 [2] | IC50 [3] | Ki [3] | IC50 [4] | Ki [4] | IC50 [5] | IC50 (Cytochrome P450 2E1) | Ki (Cytochrome P450 2E1) | IC50 (Estrogen receptor beta)

COc1cc(NC(C)CCCN)c2ncccc2c1 (centres undefined) [PRIMAQUINE]
Not Active: IC50 [1] | IC50 [2] | IC50 [3] | Ki [3] | IC50 [4] | Ki [4] | IC50 [5] | IC50 (Cytochrome P450 2E1) | Ki (Cytochrome P450 2E1) | IC50 (Estrogen receptor beta)

Cc1cc(C(C)(C)C)c(O)c(C)c1CC1=NCCN1 [OXYMETAZOLINE]
Not Active: IC50 [1] | IC50 [2] | IC50 [3] | Ki [3] | IC50 [4] | Ki [4] | IC50 [5] | IC50 (Cytochrome P450 2E1) | Ki (Cytochrome P450 2E1) | IC50 (Estrogen receptor beta)

CC(C)(c1ccc(O)cc1)c1ccc(O)cc1 [BISPHENOL A]
Not Active: IC50 [1] | IC50 [2] | IC50 [3] | Ki [3] | IC50 [4] | Ki [4] | IC50 [5] | IC50 (Cytochrome P450 2E1) | Ki (Cytochrome P450 2E1) | IC50 (Estrogen receptor beta)

O=C(O)CCc1nc(-c2ccccc2)c(-c2ccccc2)o1 [OXAPROZIN]
Not Active: IC50 [1] | IC50 [2] | IC50 [3] | Ki [3] | IC50 [4] | Ki [4] | IC50 [5] | IC50 (Cytochrome P450 2E1) | Ki (Cytochrome P450 2E1) | IC50 (Estrogen receptor beta)

NCC(CC(=O)O)c1ccc(Cl)cc1 (centres undefined) [BACLOFEN]
Not Active: IC50 [1] | IC50 [2] | IC50 [3] | Ki [3] | IC50 [4] | Ki [4] | IC50 [5] | IC50 (Cytochrome P450 2E1) | Ki (Cytochrome P450 2E1) | IC50 (Estrogen receptor beta)

CC[C@H]1OC(=O)[C@H](C)[C@@H](O[C@H]2C[C@@](C)(OC)[C@@H](O)[C@H](C)O2)[C@H](C)[C@@H](O[C@@H]2O[C@H](C)C[C@H](N(C)C)[C@H]2O)[C@](C)(O)C[C@@H](C)C(=O)[C@H](C)[C@@H](O)[C@]1(C)O [ERYTHROMYCIN]
Not Active: IC50 [1] | IC50 [2] | IC50 [3] | Ki [3] | IC50 [4] | Ki [4] | IC50 [5] | IC50 (Cytochrome P450 2E1) | Ki (Cytochrome P450 2E1) | IC50 (Estrogen receptor beta)

COC(=O)C[C@](O)(CCC(C)(C)O)C(=O)O[C@@H]1C(OC)=C[C@]23CCCN2CCc2cc4c(cc2[C@H]13)OCO4 [HARRINGTONINE]
Not Active: IC50 [1] | IC50 [2] | IC50 [3] | Ki [3] | IC50 [4] | Ki [4] | IC50 [5] | IC50 (Cytochrome P450 2E1) | Ki (Cytochrome P450 2E1) | IC50 (Estrogen receptor beta)

CHROMIC CHLORIDE
Not Active: IC50 [1] | Ki [1] | IC50 [2] | Ki [2] | IC50 [3] | Ki [3] | IC50 [4] | Ki [4] | IC50 [5] | Ki [5] | IC50 (Cytochrome P450 2E1) | Ki (Cytochrome P450 2E1) | IC50 (Estrogen receptor beta) | Ki (Estrogen receptor beta)

C#C[C@]1(O)CC[C@H]2[C@@H]3CCC4=CC(=O)CC[C@@H]4[C@H]3CC[C@@]21C [NORETHINDRONE]
Not Active: IC50 [1] | IC50 [2] | IC50 [3] | Ki [3] | IC50 [4] | Ki [4] | IC50 [5] | IC50 (Cytochrome P450 2E1) | Ki (Cytochrome P450 2E1) | IC50 (Estrogen receptor beta)

OC[C@H]1O[C@@H]2O[C@H]3[C@H](O)[C@@H](O)[C@@H](O[C@H]4[C@H](O)[C@@H](O)[C@@H](O[C@H]5[C@H](O)[C@@H](O)[C@@H](O[C@H]6[C@H](O)[C@@H](O)[C@@H](O[C@H]7[C@H](O)[C@@H](O)[C@@H](O[C@H]8[C@H](O)[C@@H](O)[C@@H](O[C@H]1[C@H](O)[C@H]2O)O[C@@H]8CO)O[C@@H]7CO)O[C@@H]6CO)O[C@@H]5CO)O[C@@H]4CO)O[C@@H]3CO [BETADEX]
Not Active: IC50 [1] | IC50 [2] | IC50 [3] | Ki [3] | IC50 [4] | Ki [4] | IC50 [5] | IC50 (Cytochrome P450 2E1) | Ki (Cytochrome P450 2E1)

CNC[C@H](O)c1ccc(O)c(O)c1 [EPINEPHRINE]
Not Active: IC50 [1] | IC50 [2] | IC50 [3] | Ki [3] | IC50 [4] | Ki [4] | IC50 [5] | IC50 (Cytochrome P450 2E1) | Ki (Cytochrome P450 2E1)

O=C(O)CNCP(=O)(O)O [GLYPHOSATE]
Not Active: IC50 [1] | IC50 [2] | IC50 [3] | Ki [3] | IC50 [4] | Ki [4] | IC50 [5] | IC50 (Estrogen receptor beta)

NC(N)=Nc1nc(CSCCC(N)=NS(N)(=O)=O)cs1 [FAMOTIDINE]
Not Active: IC50 [1] | IC50 [2] | IC50 [3] | Ki [3] | IC50 [4] | Ki [4] | IC50 [5] | IC50 (Cytochrome P450 2E1) | Ki (Cytochrome P450 2E1)
